Read-outs that look alike come from different tables or passages of the source. Each block holds one compound with its values, some of them ahead of it.
Columns and labels:
Human CA I = Human CA I (Homo sapiens, UniProt P00915); assay: CA catalyzed CO2 hydration stopped-flow assay, CA I
Protocol: (§1) An applied photophysics stopped-flow instrument has been used for assaying the CA catalyzed CO2 hydration activity. […] The CO2 concentrations ranged from 1.7 to 17 mM for the determination of the kinetic parameters and inhibition constants. […] The uncatalyzed rates were determined in the same manner and subtracted from the total observed rates. Stock solutions of inhibitor (10–50 mM) were prepared in distilled-deionized water and dilutions up to 0.1 nM were done thereafter with the assay buffer.

Human CA II = Human CA II (Homo sapiens, UniProt P00918); assay: CA catalyzed CO2 hydration stopped-flow assay, CA II; conditions: for decrease in activity on CA II compared to the standard AAZ: versus AAZ
Protocol: as §1

MMP-8 = tested on: MMP-8; design: method as in PMID 17088065, PMID 16451058, PMID 19204958; conditions: Table 2; existing data ref 16, 17, 24; cited from earlier work
Human CA IX = Human CA IX (Homo sapiens, UniProt Q16790); assay: CA catalyzed CO2 hydration stopped-flow assay, CA IX
Protocol: as §1

Human CA XII = Human CA XII (Homo sapiens, UniProt O43570); assay: CA catalyzed CO2 hydration stopped-flow assay, CA XII
Protocol: as §1

Human CA XIV = Human CA XIV (Homo sapiens, UniProt Q9ULX7); assay: CA catalyzed CO2 hydration stopped-flow assay, CA XIV
Protocol: as §1

MMP-2 = tested on: MMP-2; design: method as in PMID 17088065, PMID 16451058, PMID 19204958; conditions: Table 2; existing data ref 16, 17, 24; cited from earlier work
[1] = read-out: IC50 CA I, Table 1, recombinant human CA I, stopped-flow CO2 hydration, 15 min preincubation
[2] = read-out: IC50 CA II, Table 1, human CA II, stopped-flow CO2 hydration, 15 min preincubation
[3] = read-out: IC50 CA IX, Table 2, recombinant human CA IX, stopped-flow CO2 hydration
[4] = read-out: IC50 CA XII, Table 2, recombinant human CA XII, stopped-flow CO2 hydration
[5] = read-out: IC50 CA I, Table 2, recombinant human CA I, stopped-flow CO2 hydration
[6] = read-out: IC50 CA XIV, Table 2, recombinant human CA XIV, stopped-flow CO2 hydration
[7] = IC50 CA II, Table 1, human CA II, stopped-flow CO2 hydration, 15 min preincubation
[8] = read-out: IC50 CA II, Table 2, recombinant human CA II, stopped-flow CO2 hydration

Chain of Human CA XII (O43570 25-354): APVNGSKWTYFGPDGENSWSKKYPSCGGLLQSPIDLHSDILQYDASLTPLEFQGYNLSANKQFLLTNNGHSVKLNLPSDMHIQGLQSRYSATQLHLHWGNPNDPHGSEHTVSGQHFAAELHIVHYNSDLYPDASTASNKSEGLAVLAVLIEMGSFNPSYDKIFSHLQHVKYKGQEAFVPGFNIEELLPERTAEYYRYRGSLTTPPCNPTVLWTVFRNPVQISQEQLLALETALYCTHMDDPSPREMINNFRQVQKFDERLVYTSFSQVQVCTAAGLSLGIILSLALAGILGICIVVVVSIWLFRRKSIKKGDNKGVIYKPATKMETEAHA
Chain of Human CA I (P00915 whole entry): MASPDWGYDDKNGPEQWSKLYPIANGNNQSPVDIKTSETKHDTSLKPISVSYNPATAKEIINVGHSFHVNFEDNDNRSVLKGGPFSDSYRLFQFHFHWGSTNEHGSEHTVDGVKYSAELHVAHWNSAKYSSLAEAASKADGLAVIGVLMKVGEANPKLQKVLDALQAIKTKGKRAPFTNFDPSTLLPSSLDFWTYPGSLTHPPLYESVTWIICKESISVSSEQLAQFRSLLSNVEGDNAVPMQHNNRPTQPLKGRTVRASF
Chain of Human CA XIV (Q9ULX7 16-337): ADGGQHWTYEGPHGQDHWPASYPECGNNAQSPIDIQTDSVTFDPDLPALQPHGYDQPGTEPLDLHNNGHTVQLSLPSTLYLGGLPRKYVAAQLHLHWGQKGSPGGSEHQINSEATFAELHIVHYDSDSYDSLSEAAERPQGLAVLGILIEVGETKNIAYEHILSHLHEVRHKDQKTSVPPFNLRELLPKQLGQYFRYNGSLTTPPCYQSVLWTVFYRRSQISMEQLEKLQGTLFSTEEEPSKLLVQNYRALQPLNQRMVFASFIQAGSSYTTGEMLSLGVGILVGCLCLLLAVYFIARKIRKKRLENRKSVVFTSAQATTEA

IC50 (Human CA I; [1]): > 10 µM
IC50 (Human CA II; [2]): > 10 µM
SMILES: CC(C)CC(P(=O)(O)O)S(=O)(=O)c1ccc(-c2ccccc2)cc1 (racemic) [Compound 9]

IC50 (Human CA IX; [3]): 0.093 µM
decrease in potency on CA XII in comparison to CA IX (Human CA XII; CA XII versus CA IX): 4 fold
IC50 (Human CA XII; read-out: IC50 CA XII, rounded value): 0.47 µM
IC50 (Human CA XII; [4]): 0.475 µM
IC50 (Human CA I; [1]): > 10 µM
IC50 (Human CA I; [5]): > 10 µM
decrease in activity on CA II compared to the standard AAZ (Human CA II): ~100 fold
IC50 (Human CA II; [2]): 4.14 µM
IC50 (Human CA II; read-out: IC50 CA II, Table 2, CA II from Sigma): 4.14 µM
decrease in potency on CA XIV in comparison to CA IX (Human CA XIV; CA XIV versus CA IX): 4 fold
IC50 (Human CA XIV; read-out: IC50 CA XIV, rounded value): 0.37 µM
IC50 (Human CA XIV; [6]): 0.369 µM
SMILES: Cc1ccc(-c2ccc(S(=O)(=O)N[C@@H](C(C)C)P(=O)(O)O)cc2)cc1 [(R)-12, (R)-N-(4′-methylbiphenylsulfonyl)-phosphovaline]
IC50 (MMP-8): 0.0004 µM
IC50 (MMP-2): 0.0023 µM

inhibitory activity on CA I (in words) (Human CA I): completely devoid of activity
IC50 (Human CA I; [1]): > 10 µM
inhibitory activity on CA II (in words) (Human CA II): completely devoid of activity
IC50 (Human CA II; [2]): > 10 µM
SMILES: O=C(O)CS(=O)(=O)c1ccc(-c2ccccc2)cc1 [Compound 2]

IC50 (Human CA IX; read-out: IC50 CA IX, rounded value): 0.5 µM
IC50 (Human CA IX; [3]): 0.527 µM
IC50 (Human CA XII; [4]): 8.86 µM
IC50 (Human CA I; read-out: IC50 CA I, rounded value): 8.3 µM
IC50 (Human CA I; [1]): 8.3 µM
IC50 (Human CA I; [5]): 8.3 µM
decrease in activity on CA II compared to the standard AAZ (Human CA II): ~100 fold
IC50 (Human CA II; [2]): 3.66 µM
IC50 (Human CA II; [8]): 3.66 µM
IC50 (Human CA XIV; [6]): 8.53 µM
SMILES: O=C(CS(=O)(=O)c1ccc(-c2ccccc2)cc1)NO [Compound 3]
IC50 (MMP-8): 0.024 µM
IC50 (MMP-2): 0.006 µM

IC50 (Human CA I; [1]): > 10 µM
IC50 (Human CA II; [2]): > 10 µM
SMILES: COc1ccc(-c2ccc(S(=O)(=O)CP(=O)(O)O)cc2)cc1 [Compound 4]

IC50 (Human CA I; [1]): > 10 µM
IC50 (Human CA II; [2]): > 10 µM
SMILES: O=P(O)(O)CS(=O)(=O)c1ccc(-c2cccc(Cl)c2)cc1 [Compound 6]

IC50 (Human CA IX): 0.837 µM
IC50 (Human CA XII): 8.48 µM
IC50 (Human CA I): > 10 µM
IC50 (Human CA I; [5]): > 10 µM
IC50 (Human CA II; [7]): > 10 µM
IC50 (Human CA II; IC50 CA II, Table 2, recombinant human CA II, stopped-flow CO2 hydration): 21.1 µM
IC50 (Human CA XIV): 7.47 µM
SMILES: COc1ccc(-c2ccc(S(=O)(=O)C(Cc3ccccc3)P(=O)(O)O)cc2)cc1 (stereo not drawn) [Compound 10, 1–(4′-methoxybiphenyl-4-sulfonyl)-2-phenylethylphosphonic acid]
IC50 (MMP-2): 8.2 µM

Further lines, the compound ahead of its results:

SMILES: Cc1cccc(-c2ccc(S(=O)(=O)N[C@@H](C(C)C)P(=O)(O)O)cc2)c1 [(R)-13, (R)-1-[3′-methyl-biphenyl-4-sulfonylamino]-2-methylpropyl phosphonic acid]
IC50 (Human CA I): > 10 µM
IC50 (Human CA II; [7]): > 10 µM

SMILES: COc1ccc(-c2ccc(S(=O)(=O)N[C@@H](C(C)C)P(=O)(O)O)cc2)cc1 [(R)-15, (R)-N-(4′-methoxybiphenylsulfonyl)-phosphovaline]
IC50 (MMP-8): 0.0014 µM
IC50 (Human CA IX; [3]): 0.084 µM
IC50 (Human CA XII; [4]): 6.22 µM
IC50 (Human CA I; [1]): > 10 µM
IC50 (Human CA I; [5]): > 10 µM
decrease in activity on CA II compared to the standard AAZ (Human CA II): ~100 fold
IC50 (Human CA II; [2]): 3.78 µM
IC50 (Human CA II; [8]): 3.78 µM
IC50 (Human CA XIV; [6]): 1.52 µM
IC50 (MMP-2): 0.0015 µM

SMILES: O=P(O)(O)CS(=O)(=O)c1ccc(-c2ccccc2)cc1 [Compound 1]
IC50 (Human CA I; [1]): > 10 µM
IC50 (Human CA II; [2]): > 10 µM

SMILES: O=P(O)(O)CS(=O)(=O)c1ccc(-c2ccc(C(F)(F)F)cc2)cc1 [Compound 5]
IC50 (Human CA I; [1]): > 10 µM
IC50 (Human CA II; [2]): > 10 µM

SMILES: O=P(O)(O)CS(=O)(=O)c1ccc(-c2cccs2)cc1 [Compound 7]
IC50 (Human CA I; [1]): > 10 µM
IC50 (Human CA II; [2]): > 10 µM

SMILES: COc1ccc(Oc2ccc(S(=O)(=O)CP(=O)(O)O)cc2)cc1 [Compound 8]
IC50 (Human CA I; [1]): > 10 µM
IC50 (Human CA II; [2]): > 10 µM

SMILES: CC(C)(P(=O)(O)O)S(=O)(=O)c1ccc(-c2ccccc2)cc1 [Compound 11]
IC50 (Human CA I; [1]): > 10 µM
IC50 (Human CA II; [2]): > 10 µM
